By DC50 is commonly meant the concentration at which degradation of the target reaches its halfway point.

The results in this text go back to patent publication US20250051347A1, “BIFUNCTIONAL CHIMERIC HETEROCYCLIC COMPOUND AND USE THEREOF AS ANDROGEN RECEPTOR DEGRADER” (Hinova Pharmaceuticals, Inc., priority 2021, published 2025).

In one assay the target is T1, androgen receptor (AR) splicing variant AR-v7 (Homo sapiens, UniProt P10275).
T1 construct: The degradation activity of compounds on AR-v7 in 22RV1 cells; host or cells: 22RV1 cells
T1 sequence (P10275 1-644 isoform P10275-3): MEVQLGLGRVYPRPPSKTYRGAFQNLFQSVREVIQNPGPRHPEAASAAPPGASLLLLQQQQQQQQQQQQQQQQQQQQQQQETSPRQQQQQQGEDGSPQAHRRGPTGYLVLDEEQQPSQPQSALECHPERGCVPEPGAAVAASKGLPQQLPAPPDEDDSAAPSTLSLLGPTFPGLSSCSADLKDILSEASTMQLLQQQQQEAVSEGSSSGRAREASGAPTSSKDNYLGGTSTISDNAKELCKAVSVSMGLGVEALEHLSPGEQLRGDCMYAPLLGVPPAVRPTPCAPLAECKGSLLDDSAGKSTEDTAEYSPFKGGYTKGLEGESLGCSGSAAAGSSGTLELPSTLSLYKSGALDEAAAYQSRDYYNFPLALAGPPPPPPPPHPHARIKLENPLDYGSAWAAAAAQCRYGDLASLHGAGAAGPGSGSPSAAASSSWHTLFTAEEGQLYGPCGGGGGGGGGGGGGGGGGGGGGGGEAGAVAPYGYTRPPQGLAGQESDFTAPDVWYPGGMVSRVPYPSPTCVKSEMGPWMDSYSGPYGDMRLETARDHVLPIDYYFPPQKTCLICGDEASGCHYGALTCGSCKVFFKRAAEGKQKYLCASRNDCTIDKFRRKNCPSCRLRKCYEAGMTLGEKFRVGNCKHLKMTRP
The experiment in a line: Degradation activity on androgen receptor splicing variant AR-v7 in 22RV1 cells (ELISA). The format is cell-based. The note with it: AR-v7 degradation in 22RV1 cells, 48 h, class symbols. (In an ELISA, binding on a coated surface is turned into a signal by an enzyme label.)
The compound `CN(C)C(=O)c1noc(COc2ccc(C(C)(C)c3ccc(OCCCNc4ccc5c(c4)C(=O)N(C4CCC(=O)NC4=O)C5=O)cc3)cc2)n1` (centres unmarked) [Example 180, 5-((4-(2-(4-(3-((2-(2,6-dioxopiperidin-3-yl)-1,3-dioxoisoindolin-5-yl)amino)propoxy)phenyl)propan-2-yl)phenoxy)methyl)-N,N-dimethyl-1,2,4-oxadiazol-3-carbonylamine] gave a DC50 of 1 to 5 µM. On the same count and under the same terms, under `COC(=O)c1nccc(COc2ccc(C(C)(C)c3ccc(OCCCNc4ccc5c(c4)C(=O)N(C4CCC(=O)NC4=O)C5=O)cc3)cc2)n1` (centres unmarked) [Example 184] stands 1 to 5 µM; under `CN1CCN(c2ncc3c(n2)CN(c2ccc(C(C)(C)c4ccc(O[C@H]5C[C@@H](Nc6ccc7c(c6)C(=O)N(C6CCC(=O)NC6=O)C7=O)C5)cc4)cc2)CC3)CC1` (some centres unmarked) [Example 191], 0.011 to 0.1 µM; under `CN1CCN(c2ncc3c(n2)CN(c2ccc(C(C)(C)c4ccc(O[C@H]5C[C@H](Nc6ccc7c(c6)C(=O)N(C6CCC(=O)NC6=O)C7=O)C5)cc4)cc2)CC3)CC1` (some centres unmarked) [Example 192, 2-(2,6-dioxopiperidin-3-yl)-5-((1r,3r)-3-(4-(2-(2-(4-methylpiperazin-1-yl)-5,8-dihydropyrido[3,4-d]pyrimidin-7(6H)-phenyl)propan-2-ylphenoxy)cyclobutyl)amino)isoindolin-1,3-dione], 0.011 to 0.1 µM. Still for that read-out and setting: under `Cc1nccc(Oc2ccc(C(C)(C)c3ccc(O[C@H]4C[C@@H](Nc5ccc6c(c5)C(=O)N(C5CCC(=O)NC5=O)C6=O)C4)cc3)cc2)n1` (some centres unmarked) [Example 198] stands 0.011 to 0.1 µM. Compound `CC(C)(c1ccc(OCc2nc(N3CC4(COC4)C3)ncc2F)cc1)c1ccc(O[C@H]2C[C@@H](Nc3ccc4c(c3)C(=O)N(C3CCC(=O)NC3=O)C4=O)C2)cc1` (some centres unmarked) [Example 199] gave a DC50 of 0.011 to 0.1 µM.

Compound `CC(C)(c1ccc(OCc2nc(N3CC4(COC4)C3)ncc2Cl)cc1)c1ccc(O[C@H]2C[C@@H](Nc3ccc4c(c3)C(=O)N(C3CCC(=O)NC3=O)C4=O)C2)cc1` (some centres unmarked) [Example 201, 5-((1s,3s)-3-(4-(2-(4-((5-chloro-2-(2-oxa-6-azaspiro[3.3]heptan-6-yl)pyrimidin-4-methoxy)phenyl)propan-2-yl)phenoxy)cyclobutyl)amino)-2-(2,6-dioxopiperidin-3-yl)isoindolin-1,3-dione] yielded a DC50 of 0.011 to 0.1 µM.

With `CC(C)(c1ccc(OCc2nc(N3CC4(COC4)C3)ncc2Cl)cc1)c1ccc(O[C@H]2C[C@H](Nc3ccc4c(c3)C(=O)N(C3CCC(=O)NC3=O)C4=O)C2)cc1` (some centres unmarked) [Example 202, 5-((1r,3r)-3-(4-(2-(4-((5-chloro-2-(2-oxa-6-azaspiro[3.3]heptan-6-yl)pyrimidin-4-methoxy)phenyl)propan-2-yl)phenoxy)cyclobutyl)amino)-2-(2,6-dioxopiperidin-3-yl)isoindolin-1,3-dione], the DC50 was in the range of 0.011 to 0.1 µM. Regarding `Cc1cnc(N2CC3(COC3)C2)nc1COc1ccc(C(C)(C)c2ccc(O[C@H]3C[C@@H](Nc4ccc5c(c4)C(=O)N(C4CCC(=O)NC4=O)C5=O)C3)cc2)cc1` (some centres unmarked) [Example 203], the DC50 was in the range of 0.011 to 0.1 µM. The same measure, in the same setting: the value for `Cn1cc(-c2ccc(Oc3ccc(C(C)(C)c4ccc(O[C@H]5C[C@H](Nc6ccc7c(c6)C(=O)N(C6CCC(=O)NC6=O)C7=O)C5)cc4)cc3)cn2)cn1` (some centres unmarked) [Example 205] was 0.011 to 0.1 µM.

Regarding `CC(C)(c1ccc(Oc2ccc(-n3cccn3)nc2)cc1)c1ccc(O[C@H]2C[C@H](Nc3ccc4c(c3)C(=O)N(C3CCC(=O)NC3=O)C4=O)C2)cc1` (some centres unmarked) [Example 208], the DC50 lay in the range of 0.011 to 0.1 µM. On the same count and under the same terms, under `Cc1nc(-c2ncc(Oc3ccc(C(C)(C)c4ccc(O[C@H]5C[C@H](Nc6ccc7c(c6)C(=O)N(C6CCC(=O)NC6=O)C7=O)C5)cc4)cc3)cc2C(F)(F)F)no1` (some centres unmarked) [Example 211] stands 0.011 to 0.1 µM; under `Cc1nc(-c2ccc(Oc3ccc(C(C)(C)c4ccc(O[C@H]5C[C@@H](Nc6ccc7c(c6)C(=O)N(C6CCC(=O)NC6=O)C7=O)C5)cc4)cc3)nc2)no1` (some centres unmarked) [Example 213], 0.011 to 0.1 µM. The same measure, in the same setting: under `CC(C)(c1ccc(Oc2ccc(N3CC4(COC4)C3)nc2)cc1)c1ccc(O[C@H]2C[C@H](Nc3ccc4c(c3)C(=O)N(C3CCC(=O)NC3=O)C4=O)C2)cc1` (some centres unmarked) [Example 214] stands 0.011 to 0.1 µM; under `CC(C)(c1ccc(Oc2cnc(N)nn2)cc1)c1ccc(O[C@H]2C[C@H](Nc3ccc4c(c3)C(=O)N(C3CCC(=O)NC3=O)C4=O)C2)cc1` (some centres unmarked) [Example 215], 0.011 to 0.1 µM; under `Cc1nnc(-c2ccc(Oc3ccc(C(C)(C)c4ccc(O[C@H]5C[C@H](Nc6ccc7c(c6)C(=O)N(C6CCC(=O)NC6=O)C7=O)C5)cc4)cc3)nc2)o1` (some centres unmarked) [Example 216], 0.011 to 0.1 µM.

`Cc1nc(COc2ccc(C(C)(C)c3ccc(OCCCNc4cccc5c4C(=O)N(C4CCC(=O)NC4=O)C5=O)cc3)cc2)cs1` (centres unmarked) [Example 224, 2-(2,6-dioxopiperidin-3-yl)-4-((3-(4-(2-(4-((2-methylthiazol-4-yl)methoxy)phenyl)propan-2-yl)phenoxy)propyl)amino)isoindolin-1,3-dione] came in with a DC50 of 0.101 to 1 µM. Same read-out and setting: under `CN1CCC(Oc2nccc(COc3ccc(C(C)(C)c4ccc(O[C@H]5C[C@@H](Nc6ccc7c(c6)C(=O)N(C6CCC(=O)NC6=O)C7=O)C5)cc4)cc3)n2)CC1` (some centres unmarked) [Example 234] stands 0.011 to 0.1 µM; under `CC(C)(c1ccc(OCc2ccnc(OC3CCN(C(=O)OCc4ccccc4)CC3)n2)cc1)c1ccc(O[C@H]2C[C@@H](Nc3ccc4c(c3)C(=O)N(C3CCC(=O)NC3=O)C4=O)C2)cc1` (some centres unmarked) [Example 235], 0.101 to 1 µM. Regarding `CC(C)(c1ccc(OCc2ccnc(OC3CCNCC3)n2)cc1)c1ccc(O[C@H]2C[C@@H](Nc3ccc4c(c3)C(=O)N(C3CCC(=O)NC3=O)C4=O)C2)cc1` (some centres unmarked) [Example 236], the DC50 lay within 0.011 to 0.1 µM. For the compound `CN(C)[C@H]1CCN(c2nccc(COc3ccc(C(C)(C)c4ccc(O[C@H]5C[C@@H](Nc6ccc7c(c6)C(=O)N(C6CCC(=O)NC6=O)C7=O)C5)cc4)cc3)n2)C1` (some centres unmarked) [Example 238], the DC50 lay within 0.011 to 0.1 µM. Still for that read-out and setting: under `CC(C)(c1ccc(OCc2ccnc(N3CCN(CCO)CC3)n2)cc1)c1ccc(O[C@H]2C[C@@H](Nc3ccc4c(c3)C(=O)N(C3CCC(=O)NC3=O)C4=O)C2)cc1` (some centres unmarked) [Example 241, 2-(2,6-dioxopiperidin-3-yl)-5-(((1s,3s)-3-(4-(2-(4-((2-(4-(2-hydroxylethyl)piperazin-1-yl)pyrimidin-4-yl)methoxy)phenyl)propan-2-yl)phenoxy)cyclobutyl)amino)isoindolin-1,3-dione] stands 0.011 to 0.1 µM; under `CN1CC[C@@H](Oc2nccc(COc3ccc(C(C)(C)c4ccc(O[C@H]5C[C@@H](Nc6ccc7c(c6)C(=O)N(C6CCC(=O)NC6=O)C7=O)C5)cc4)cc3)n2)C1` (some centres unmarked) [Example 243], less than 0.01 µM. Regarding `CC(C)(c1ccc(OCc2ccnc(NC#N)n2)cc1)c1ccc(O[C@H]2C[C@H](Nc3ccc4c(c3)C(=O)N(C3CCC(=O)NC3=O)C4=O)C2)cc1` (some centres unmarked) [Example 245, N-(4-((4-(2-(4-((1s,3s)-3-((2-(2,6-dioxopiperidin-3-yl)-1,3-dioxoisoindolin-5-yl)amino)cyclobutyloxy)phenyl)propan-2-yl)phenoxy)methyl)pyrimidin-2-yl)cyanamide], the half-maximal degradation concentration (DC50) lay within 0.101 to 1 µM. Still for that read-out and setting: under `CC(C)(c1ccc(Oc2nc(N3CC4(COC4)C3)ncc2F)cc1)c1ccc(O[C@H]2C[C@H](Nc3ccc4c(c3)C(=O)N(C3CCC(=O)NC3=O)C4=O)C2)cc1` (some centres unmarked) [Example 247] stands 0.011 to 0.1 µM.

In turn, `Cc1noc(-c2nccc(COc3ccc(C(C)(C)c4ccc(O[C@H]5C[C@H](Nc6ccc7c(c6)C(=O)N(C6CCC(=O)NC6=O)C7=O)C5)cc4)cc3)n2)n1` (some centres unmarked) [Example 250] showed a DC50 of 0.011 to 0.1 µM. `CC(C)(c1ccc(OCc2ccnc(-c3ncno3)n2)cc1)c1ccc(O[C@H]2C[C@@H](Nc3ccc4c(c3)C(=O)N(C3CCC(=O)NC3=O)C4=O)C2)cc1` (some centres unmarked) [Example 252]: the half-maximal degradation concentration (DC50) was 1 to 5 µM. Compound `CC(C)(c1ccc(OCc2cccc(-n3cccn3)n2)cc1)c1ccc(O[C@H]2C[C@H](Nc3ccc4c(c3)C(=O)N(C3CCC(=O)NC3=O)C4=O)C2)cc1` (some centres unmarked) [Example 253] returned a DC50 of 0.011 to 0.1 µM. On the same count and under the same terms, the value for `Cc1nnc(-c2ccnc(Oc3ccc(C(C)(C)c4ccc(O[C@H]5C[C@H](Nc6ccc7c(c6)C(=O)N(C6CCC(=O)NC6=O)C7=O)C5)cc4)cc3)c2)o1` (some centres unmarked) [Example 257] was 0.011 to 0.1 µM; that for `CC(C)(c1ccc(OCc2ccnc(N3C[C@@H]4C[C@H]3CN4)n2)cc1)c1ccc(O[C@H]2C[C@@H](Nc3ccc4c(c3)C(=O)N(C3CCC(=O)NC3=O)C4=O)C2)cc1` (stereo partly drawn) [Example 260, 5-(((1s,3s)-3-(4-(2-(4-((2-((1S,4S)-2,5-diazabicyclo[2.2.1]heptan-2-yl)pyrimidin-4-yl)methoxy)phenyl)propan-2-yl)phenoxy)cyclobutyl)amino)-2-(2,6-dioxopiperidin-3-yl)isoindolin-1,3-dione] was 0.011 to 0.1 µM.

The same assay, now with this note: AR-v7 degradation in 22RV1 cells, 48 h, numeric values.
`CC(C)(c1ccc(OCCCCCCCCOCCCCNc2ccc3c(c2)C(=O)N(C2CCC(=O)NC2=O)C3=O)cc1)c1ccc(OCc2ccnc(Nc3ncco3)n2)cc1` (centres unmarked) [Example 226]: the DC50 was greater than 10 µM. Same read-out and setting: under `C=CC(=O)Nc1nccc(COc2ccc(C(C)(C)c3ccc(OCCCCCCCCOCCN4CCN(c5ccc6c(c5)C(=O)N(C5CCC(=O)NC5=O)C6=O)CC4)cc3)cc2)n1` (centres unmarked) [Example 227] stands greater than 10 µM.
